Experimental data reported in US20050009868A1, “Retinoid receptor pan-antagonists for stimulating chondrogenesis” (priority 2001, published 2005).
Read-outs that look alike come from different tables or passages of the source. One block for each molecule: values may come before it.

Columns and labels:
Sox9 mRNA = assay: Northern blot of Sox9 mRNA in limb mesenchymal cultures; type: cell-based, mouse; details: 1 μM, 2-day cultures
Description: Northern blots were carried out using total RNA from limb mesenchymal cultures, as previously described (Weston et al., 2000). Briefly, total RNA was extracted from cells cultured for 2, 4, 6 or 8 days. Cells were treated with media alone or with AGN 194301. Synthesis of the Col2a1 cDNA fragment used was as described previously (Weston et al., 2000). The Sox9 cDNA probe was made using an EST clone, GenBank accession number Al594348 (Research Genetics). The Sox9 fragment was released from pT7T3 using Eco RI and Not I.

[1] = system: RA response element (pW1-βRARE3-Luc); assay: Retinoic acid responsive reporter (pW1-βRARE3-Luc) luciferase assay in primary limb mesenchymal cells; type: cell-based, mouse; details: for effect on RARE reporter activity (in words): concentration series
Description: (§1) Limb mesenchymal cells were harvested from embryonic age 11.25-11.75 mouse embryos as previously described (Weston et al., 2000). The cells were resuspended at a density of about 2.5×10^7 cells/ml prior to transfections, otherwise they were resuspended at 1.5×10^7 cells/ml. For transfection purposes, cells were mixed with a DNA/FuGene6 mixture in a 2:1 ratio. FuGene6-DNA mixtures were prepared according to the manufacturer's instructions (Roche Biomolecular). Briefly, 1 μg of reporter, 1 μg of expression vector and 0.05 μg of pRLSV40 (Promega) were mixed for a total of about 2 μg DNA in 100 μL of media and FuGene6. Fifty microlitres of the DNA mixture was transferred into a sterile 1.5 ml eppendorf tube, followed by 100 μl of cells. Cells were gently triturated and 10 μl was used to seed each single well of a 24-well culture dish. After 1.5 hrs in a humidified CO2 incubator, 1 ml of media containing compounds of interest was added to each well and was subsequently replaced 24 hours following transfection. All-trans RA (at-RA; Sigma), AGN193836 (Teng et al., 1996), AGN194301 (Teng et al., 1997) and AGN194310 (Johnson et al., 1999)(Allergan Inc.) were dissolved in 95% ethanol. SB202190 and SB203580 (Calbiochem) and H89 (Sigma) were dissolved in dimethyl sulfoxide (DMSO) (BDH). 8-(4-chlorophenylthio)-cAMP (pCPT-cAMP, Sigma) was dissolved in water just prior to use.
(§2) Analysis of reporter gene activity using the Dual Luciferase Assay System was done following the manufacturer's instructions (Promega). Briefly, approximately 48 hours following the transfections, cells were washed once with PBS and lysed in 100 μl of Passive Lysis Buffer for 20 minutes. Firefly and renilla luciferase activities were determined using 40 μl of lysate in a 96-well plate-reading luminometer (Molecular Devices). Alcian blue staining of cultures was carried out as described previously (Cash et al., 1997).

[2] = system: primary limb mesenchymal cultures; details: earlier work, Weston et al., 2000; cited from earlier work
pGL3(4×48) Sox9 reporter = assay: Sox9 reporter (pGL3(4×48)) luciferase assay in transiently transfected primary limb mesenchymal cultures; type: cell-based, mouse; details: for effect on the antagonist-induced increase in Sox9 reporter activity (in words): co-treatment with AGN194301 or AGN194310
Source text: The Sox9 responsive reporter (herein referred to as the Sox9 reporter) was generated by subcloning a fragment containing a reiterated (4×48) Sox9 binding sequence coupled to the mouse Col2a1 minimal promoter (−89 to +6) into pGL3. The fragment containing the 4×48 repeat and minimal promoter was isolated as a BamH I/Hind III fragment from the original 4×48-p89Luc reporter plasmid previously described (Lefebvre et al., 1997), and was subcloned into the BgI II and Hind III sites of pGL3-basic (Promega) to generate pGL3(4×48). The reporter pW1-Col2-Luc was generated from the original p309i(182×2)βgeoCol2a1 (Zhou et al., 1995) by subcloning the regulatory region (consisting of a 309-bp promoter region and two tandem repeats of a 182-bp intron-1 fragment) into pW1 (Balkan et al., 1992) as an EcoR I/BamH I fragment. A BgI II fragment containing the luciferase gene isolated from pJD205 (de Wet et al., 1987) was subcloned into the BamH I site of pW1-Col2 to generate pW1-Col2-Luc. The pcDNA3-hSox9 expression vector was as described (Lefebvre et al., 1997). To generate a mutated form of hSox9, hSox9 was subcloned into pKSII (Stratagene) and serine 181 was replaced with alanine, using the Quick-Change XL system (Stratagene) with the following overlapping primers: 5′-[…]-3′, and 5′-[…]-3′. Following mutagenesis, the Sox9 mutant and wt Sox9 were subcloned into pcDNA3, and the serine-alanine conversion was confirmed by sequencing.
as §1, §2

[3] = system: primary limb mesenchymal cultures; assay: Cartilage nodule formation in primary limb mesenchymal cultures (alcian blue staining); type: cell-based, mouse
Description: as §1, §2

IL-2 gene expression = details: Koyama et al., 2000; read-out: IC50 for inhibition of IL-2 gene expression; cited from earlier work
[4] = 10 μM, versus untreated control cultures
[5] = day 4 alcian blue-stained cultures

SMILES: Cc1ccc(C2=CC(C)(C)Oc3c(Br)cc(C(=O)Nc4ccc(C(=O)O)c(F)c4)cc32)cc1 [AGN194301, 2-Fluoro-4-[(1-(8-bromo-2,2-dimethyl-4-(4-methylphenyl)-2-H-chromen-6-yl)-methanoyl)-amino]-benzoic acid]
- Sox9 mRNA expression (in words) (Sox9 mRNA): noticeable increase in Sox9 mRNA
- concentrations inducing significant changes in activity of the RARE reporter (Bonferroni post-tests) ([1]; FIG. 1B, P at least <0.05): ≥ 100 nM
- cartilage nodule formation (in words) [2]: substantial increase in the number of cartilage nodules
- concentrations giving significant differences in Sox9 reporter activity (Bonferroni post-tests) (pGL3(4×48) Sox9 reporter; FIG. 1A, P at least <0.05): ≥ 100 nM
- greatest induction of Sox9 reporter activity (pGL3(4×48) Sox9 reporter; at 1 μM, primary limb mesenchymal cells): about 280%
- effect on Sox9 reporter activity (in words) (pGL3(4×48) Sox9 reporter; concentration series): concentration-dependent increase in reporter activity

SMILES: Oc1ccc(-c2nc(-c3ccncc3)c(-c3ccc(F)cc3)[nH]2)cc1 [SB202190]
- cartilage nodule formation (in words) [3, 4]: almost no cartilage nodules form
- effect on Sox9 reporter activity (in words) (pGL3(4×48) Sox9 reporter; 5 or 10 μM): decrease in Sox9 reporter activity compared to untreated controls
- effect on the antagonist-induced increase in Sox9 reporter activity (in words) (pGL3(4×48) Sox9 reporter): attenuated the chondrogenic response to AGN194301

SMILES: Nc1ncnc2c1nc(Sc1ccc(Cl)cc1)n2[C@@H]1O[C@@H]2COP(=O)(O)O[C@H]2[C@H]1O [pCPT-cAMP, 8-(4-chlorophenylthio)-cAMP]
- increase in Sox9 reporter activity (pGL3(4×48) Sox9 reporter; 500 μM, absence of exogenous Sox9): about 4.5 fold
- further increase in Sox9 reporter activity (pGL3(4×48) Sox9 reporter; co-transfection with wt Sox9 or Sox9-181A): < 1.5 fold

Now from value to molecule, other results behind:

- maximal induction of Sox9 reporter activity (pGL3(4×48) Sox9 reporter; at 50 nM, primary limb mesenchymal cells): ~530%
- concentration inducing Sox9 reporter activity greater than the maximal response elicited by 301 (pGL3(4×48) Sox9 reporter; concentrations as low as): ≥ 10 nM
SMILES: CCc1ccc(C2=CC(C)(C)Sc3ccc(C#Cc4ccc(C(=O)O)cc4)cc32)cc1 [AGN194310]
- effect on RARE reporter activity (in words) [1]: attenuated by 310 more effectively than by 301
- concentration at which increase in nodule formation can be observed ([3]; treatment for 4 days, alcian blue): 10 nM

- effect on Sox9 reporter activity (in words) (pGL3(4×48) Sox9 reporter; 10 μM, absence of exogenous Sox9): repressed reporter activity
- effect on Sox9 reporter activity (in words) (pGL3(4×48) Sox9 reporter; presence of co-transfected Sox9): slightly decreased reporter activity
SMILES: O=S(=O)(NCCNC/C=C/c1ccc(Br)cc1)c1cccc2cnccc12 [H89]
- cartilage nodule formation (in words) [3, 4]: fewer nodules are detected compared to untreated cultures
- effect on the antagonist-induced increase in Sox9 reporter activity (in words) (pGL3(4×48) Sox9 reporter): reduced Sox9 reporter activity both in the presence or absence of AGN194301 or dnRARα

- effect on the antagonist-induced increase in Sox9 reporter activity (in words) (pGL3(4×48) Sox9 reporter): attenuated the 310-induced increase
SMILES: CC(/C=C/C(=O)NO)=C\[C@@H](C)C(=O)c1ccc(N(C)C)cc1 [TSA, Trichostatin A]
- effect on RARE reporter activity (in words) [1]: enhanced activity of the pW1-αRARE3tkLuc reporter in a concentration-dependent manner
- cartilage nodule formation (in words) [3, 5]: decrease in the number of cartilage nodules
- effect on Sox9 reporter activity (in words) (pGL3(4×48) Sox9 reporter; concentration series): dose-dependent decrease in Sox9 reporter activity
- IC50 (IL-2 gene expression): 73 nM

- Sox9 reporter activity reduced to (% of control) (pGL3(4×48) Sox9 reporter; at 5 nM): 53%
- effect on Sox9 reporter activity (in words) (pGL3(4×48) Sox9 reporter; concentration series): attenuated reporter activity
SMILES: CC1=C(/C=C/C(C)=C/C=C/C(C)=C/C(=O)O)C(C)(C)CCC1 [at-RA, All-trans RA]
- effect on RARE reporter activity (in words) [1]: activated the RARβ reporter to a greater extent than about 836
- cartilage nodule formation (in words) [3, 5]: more potent inhibitor of cartilage nodule formation than 836
